Data set [1] has as its target T1, 5-hydroxytryptamine receptor 2C (Homo sapiens) (UniProt P28335).
T1 sequence (whole entry): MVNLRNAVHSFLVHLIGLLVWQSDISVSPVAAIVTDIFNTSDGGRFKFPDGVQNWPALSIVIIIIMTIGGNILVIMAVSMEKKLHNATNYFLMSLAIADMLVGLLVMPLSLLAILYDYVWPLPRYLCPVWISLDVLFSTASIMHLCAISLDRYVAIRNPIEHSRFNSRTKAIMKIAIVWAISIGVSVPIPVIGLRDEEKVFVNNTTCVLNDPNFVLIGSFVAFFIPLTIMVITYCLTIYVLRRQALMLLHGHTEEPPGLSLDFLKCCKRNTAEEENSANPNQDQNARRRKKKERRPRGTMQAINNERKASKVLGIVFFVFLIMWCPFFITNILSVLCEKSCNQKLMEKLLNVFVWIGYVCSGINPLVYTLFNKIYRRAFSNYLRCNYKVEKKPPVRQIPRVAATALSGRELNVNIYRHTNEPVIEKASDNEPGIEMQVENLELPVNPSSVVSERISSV
Description: Agonist activity at human 5-HT2C-INI receptor isoform expressed in Flp-IN HEK293 cells assessed as induction of Gq-mediated calcium flux measured every second for 5 mins by Fluo-4 dye based FLIPR assay relative to serotonin. The format is functional, cell-based.

The target in data set [2] is T2, 5-hydroxytryptamine receptor 2B (Homo sapiens, UniProt P41595). As to the kind of experiment: Agonist activity at human 5-HT2B receptor expressed in Flp-IN HEK293 cells assessed as induction of calcium flux measured every second for 5 mins by Fluo-4 dye based FLIPR assay. The class given is cell-based. (In general: A change in cytosolic calcium serves as a functional read-out for many receptors and channels.)
T2 sequence (P41595 whole entry): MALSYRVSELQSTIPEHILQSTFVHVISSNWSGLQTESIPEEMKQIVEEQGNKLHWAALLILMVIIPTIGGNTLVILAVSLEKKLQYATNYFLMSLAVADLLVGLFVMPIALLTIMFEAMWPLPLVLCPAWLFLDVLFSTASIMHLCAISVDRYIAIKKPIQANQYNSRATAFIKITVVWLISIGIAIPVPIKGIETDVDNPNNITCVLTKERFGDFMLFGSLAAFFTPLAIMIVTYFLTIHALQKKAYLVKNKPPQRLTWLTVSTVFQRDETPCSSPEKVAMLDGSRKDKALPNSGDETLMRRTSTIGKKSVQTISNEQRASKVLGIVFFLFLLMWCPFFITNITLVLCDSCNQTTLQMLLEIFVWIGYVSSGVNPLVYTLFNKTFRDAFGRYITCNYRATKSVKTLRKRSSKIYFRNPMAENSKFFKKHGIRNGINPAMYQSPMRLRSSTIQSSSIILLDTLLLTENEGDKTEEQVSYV

The target of a further data set is 5-HT2A receptor (Homo sapiens, UniProt P28223). As to the kind of experiment: Agonist activity at human 5-HT2A receptor expressed in Flp-IN HEK293 cells assessed as induction of calcium flux measured every second for 5 mins by Fluo-4 dye based FLIPR assay relative to serotonin. The format is cell-based. Conditions: Flp-IN HEK293 cells expressing human 5-HT2A receptor.
Chain of 5-HT2A receptor (P28223 whole entry): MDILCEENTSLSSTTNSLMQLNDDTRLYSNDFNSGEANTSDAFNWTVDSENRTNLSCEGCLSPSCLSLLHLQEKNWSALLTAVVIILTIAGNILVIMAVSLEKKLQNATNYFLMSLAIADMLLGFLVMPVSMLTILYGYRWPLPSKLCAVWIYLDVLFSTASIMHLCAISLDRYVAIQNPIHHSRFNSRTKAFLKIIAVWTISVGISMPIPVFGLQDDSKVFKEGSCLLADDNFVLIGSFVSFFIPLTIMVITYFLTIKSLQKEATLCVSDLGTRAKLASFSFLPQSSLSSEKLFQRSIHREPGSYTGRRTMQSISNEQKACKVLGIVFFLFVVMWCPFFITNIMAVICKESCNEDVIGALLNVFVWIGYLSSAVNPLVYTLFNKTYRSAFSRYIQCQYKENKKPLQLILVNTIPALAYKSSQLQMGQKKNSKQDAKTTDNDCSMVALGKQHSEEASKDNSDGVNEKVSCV

Another data set deals with 5-HT2B receptor (Homo sapiens, UniProt P41595). As to the kind of experiment: Agonist activity at human 5-HT2B receptor expressed in Flp-IN HEK293 cells assessed as induction of calcium flux measured every second for 5 mins by Fluo-4 dye based FLIPR assay relative to serotonin. The format is cell-based. Conditions: Flp-IN HEK293 cells expressing human 5-HT2B receptor.
Chain of 5-HT2B receptor (P41595 whole entry): as the sequence (P41595 whole entry) above

The target in data set [3] is T3, 5-hydroxytryptamine receptor 2A (Homo sapiens, UniProt P28223). Description: Agonist activity at human 5-HT2A receptor expressed in Flp-IN HEK293 cells assessed as induction of calcium flux measured every second for 5 mins by Fluo-4 dye based FLIPR assay. The format is cell-based.
T3 sequence (P28223 whole entry): as the sequence (P28223 whole entry) above
In data set [4] the target is T4, 5-hydroxytryptamine receptor 2C (Homo sapiens, UniProt P28335).
T4 sequence (P28335 whole entry): T1 sequence (whole entry)
Description: Agonist activity at human 5-HT2C-INI receptor isoform expressed in Flp-IN HEK293 cells assessed as induction of Gq-mediated calcium flux measured every second for 5 mins by Fluo-4 dye based FLIPR assay. Conditions: read-out: EC50. The format is functional, cell-based.

In data set [5] the target is T2, 5-hydroxytryptamine receptor 2B. Description: Agonist activity at human 5-HT2B receptor expressed in Flp-IN HEK293 cells assessed as induction of calcium flux up to 10 uM measured every second for 5 mins by Fluo-4 dye based FLIPR assay. The format is cell-based. Conditions: hek293, 5 min.
Data set [6] deals with T3, 5-hydroxytryptamine receptor 2A. As to the kind of experiment: Agonist activity at human 5-HT2A receptor expressed in Flp-IN HEK293 cells assessed as induction of calcium flux up to 10 uM measured every second for 5 mins by Fluo-4 dye based FLIPR assay. The format is cell-based. Conditions: hek293, 5 min.
Data set [7] has as its target T1, 5-hydroxytryptamine receptor 2C (Homo sapiens). Description: Agonist activity at human 5-HT2C-INI receptor isoform expressed in Flp-IN HEK293 cells assessed as induction of Gq-mediated calcium flux up to 10 uM measured every second for 5 mins by Fluo-4 dye based FLIPR assay. The class given is functional, cell-based.

Activity calls are given as the source filed them. No cut-off for these calls is given here.

By Emax is commonly meant the size of the effect at its maximum, as opposed to the concentration needed. What is called EC50 is the midpoint of the concentration-response curve.

As to `COc1ccc(F)cc1C1CC1CNCc1ccccc1C#N` (racemic), the Emax in data set [1] worked out at 30%. Besides, the results for the concentration giving a half-maximal response (EC50) in [2], in [3] and in [4] were 238 nM, 721 nM and 245 nM, respectively. For the same molecule, the values for the maximum response (Emax) at 5 min at 5-HT2A receptor and at 5-HT2B receptor were 63% and 82%, respectively.
With `COc1ccccc1CCNCC1CC1c1cc(F)ccc1OC` (racemic), the Emax at 5 min at 5-HT2A receptor is 59%. Also, the EC50 in data set [3] turned out to be 307 nM.
As for `COc1ccc(F)cc1C1CC1CNCc1cccc2ccsc12` (racemic), the maximal response (Emax) in [1] amounted to 94%. Also, the half-maximal effective concentration (EC50) in data set [2] came to 807 nM; in [3], 2220 nM; in data set [4], 777 nM. Further, the Emax at 5 min at 5-HT2A receptor was determined as 70%; on 5-HT2B receptor it was 79%.
For `COc1cccc(CNC[C@@H]2C[C@H]2c2cc(F)ccc2OC)c1.Cl`, in [5], the Activity entry is recorded as “Not Active”. In addition, the maximal response (Emax) in data set [1] was determined as 85%. The Emax at 5 min on 5-HT2A receptor is 97%. The results for the half-maximal effective concentration (EC50) in data set [3] and in data set [4] were 6840 nM and 2600 nM, respectively.
In the case of `C=CCOc1ccc(F)cc1[C@H]1C[C@@H]1CNC.Cl`, the Activity entry in [5] was “Not Active”. Further, the Emax in data set [1] was 15%. In addition, the Emax at 5 min on 5-HT2A receptor came to 19%. Besides, the EC50 in data set [3] is 284 nM; in data set [4] it was 13 nM.
For the molecule `COc1ccc(F)cc1C1CC1CNCc1cccnc1OC` (racemic), the Emax in data set [1] is 65%. The values for the EC50 in data set [2], in [3] and in data set [4] were 274 nM, 1290 nM and 433 nM, respectively. The Emax at 5 min is 66% at 5-HT2A receptor and 32% at 5-HT2B receptor.
With `COc1ccc(F)cc1C1CC1CNCc1cccc2cc[nH]c12.Cl` (racemic), the Activity entry in [6] and in data set [5] was “Not Active” in each case. The outcome in [7] was inactive.
Consider `COc1ccc(CNC[C@@H]2C[C@H]2c2cc(F)ccc2OC)cc1.Cl`, for which the Activity entry in data set [6] and in data set [5] was “Not Active” in each case. The result in data set [7] was inactive.
As for `COc1ccc(F)cc1C1CC1CNCc1sccc1OC.Cl` (racemic), in data set [5], the Activity result was “Not Active”. Moreover, in data set [1], the Emax turned out to be 66%. The Emax at 5 min at 5-HT2A receptor worked out at 102%. The EC50 was 148 nM in data set [3] and 121 nM in [4].
For `COc1ccc(F)cc1[C@H]1C[C@@H]1CNCc1ccccc1F.Cl`, in that order: “Not Active”, 78%, 63%, 1880 nM and 502 nM.
In the same order, the values of `COc1ccc(F)cc1C1CC1CNCc1ccccc1O.Cl` (racemic) are “Not Active”, 63%, 76%, 77 nM and 304 nM.
In the same order, the values of `COc1ccc(F)cc1[C@@H]1C[C@H]1CNCc1cccs1.Cl` are “Not Active”, 81%, 59%, 674 nM and 308 nM.
Regarding `COc1ccc(F)cc1C1CC1CNCc1ccsc1OC.Cl` (racemic), the Activity entry in [5] is reported as “Not Active”. Besides, in [1], the Emax was 65%. Also, on 5-HT2A receptor, the Emax at 5 min came to 100%. Also, the EC50 in data set [3] is 463 nM; in data set [4], 556 nM.
Regarding `COc1ccc(F)cc1[C@@H]1C[C@H]1CNCc1ccccc1Cl.Cl`, the Activity entry in data set [5] is “Not Active”. Further, in data set [1], the Emax was 72%. For the same molecule, the results for the EC50 in data set [3] and in data set [4] were 2990 nM and 1860 nM, respectively.
For the molecule `COc1ccccc1C(C)NCC1CC1c1cc(F)ccc1OC.Cl` (racemic), the Activity result in [5] is reported as “Not Active”. In addition, the Emax in data set [1] worked out at 81%. Also, the Emax at 5 min at 5-HT2A receptor came out at 106%. In addition, the 50% effective concentration (EC50) in data set [3] amounted to 238 nM; in data set [4], 2550 nM.
With `COc1ccccc1CNC[C@@H]1C[C@H]1c1cc(F)ccc1OC`, the maximal response (Emax) in data set [1] is 104%. Besides, the EC50 in data set [2] was determined as 570 nM. In addition, the Emax at 5 min amounted to 94% on 5-HT2A receptor and 72% at 5-HT2B receptor.
On to `COc1ccc(F)cc1C1CC1CNC1CC1` (racemic), for which the maximum response (Emax) in [1] was 70%. Besides, the half-maximal effective concentration (EC50) in [2] stood at 641 nM; in [3], 1090 nM; in [4], 399 nM. Also, the figures for the Emax at 5 min on 5-HT2A receptor and at 5-HT2B receptor were 69% and 14%, respectively.
For the molecule `COc1ccc(F)cc1C1CC1CNC1(c2ccccc2OC)CC1.Cl` (racemic), the Activity entry in data set [5] was “Not Active”. In addition, in data set [1], the maximal response (Emax) was found to be 77%. Further, on 5-HT2A receptor, the Emax at 5 min was found to be 102%. In addition, the results for the EC50 in data set [3] and in data set [4] were 655 nM and 874 nM, respectively.
In the same order, the values of `COc1ccc(F)cc1[C@@H]1C[C@H]1CNCc1ccccc1F.Cl` are “Not Active”, 90%, 78%, 1880 nM and 1640 nM.
As for `COc1ccc(CNC[C@H]2C[C@@H]2c2cc(F)ccc2OC)cc1.Cl`, the Activity result in [6] and in data set [5] was “Not Active” throughout. Besides, the maximum response (Emax) in data set [1] was 71%. For the same molecule, the half-maximal effective concentration (EC50) in data set [4] was 1200 nM.
Take `COc1ccccc1CN(C)CC1CC1c1cc(F)ccc1OC.Cl` (racemic): in [5], the Activity result is given as “Not Active”. Further, the Emax in data set [1] worked out at 49%. Also, the maximal effect (Emax) at 5 min at 5-HT2A receptor was determined as 24%. Moreover, the EC50 worked out at 2540 nM in data set [3] and 670 nM in [4].
Turning to `COc1ccc(F)cc1C1CC1CNCc1cccc2cccnc12` (racemic), in data set [1], the maximum response (Emax) came out at 84%. The EC50 in [2] turned out to be 87 nM; in data set [3], 460 nM; in [4], 530 nM. The Emax at 5 min on 5-HT2A receptor turned out to be 69%; at 5-HT2B receptor, 73%.
`COc1cccc(CNC[C@H]2C[C@@H]2c2cc(F)ccc2OC)c1.Cl`: the Activity entry in [5] was “Not Active”. Moreover, in [1], the Emax came to 83%. The Emax at 5 min on 5-HT2A receptor was 70%. In addition, the EC50 in [3] was 3700 nM; in data set [4] it was 231 nM.
For `COc1ccc(F)cc1C1CC1CNCC1CCCCC1.Cl` (racemic), the Activity result in [6] and in [5] was “Not Active” each time. Besides, the Emax in data set [1] was 15%. Further, in data set [4], the EC50 stood at 95 nM.
With `COc1cscc1CNCC1CC1c1cc(F)ccc1OC.Cl` (racemic), the Activity result in data set [5] was “Not Active”. The Emax in [1] came to 65%. The maximum response (Emax) at 5 min on 5-HT2A receptor was 89%. For the same molecule, the EC50 in data set [3] worked out at 145 nM; in data set [4], 228 nM.
`COc1ccc(F)cc1C1CC1CNCC1CC1.Cl` (racemic): the Activity entry in data set [5] was “Not Active”. The maximal response (Emax) at 5 min on 5-HT2A receptor turned out to be 43%. In addition, the EC50 in data set [3] turned out to be 4260 nM. For the same molecule, in [7], the outcome was inactive.
Turning to `COc1ccc(F)cc1[C@H]1C[C@@H]1CNCc1ccccc1Cl.Cl`, the Activity entry in data set [5] is reported as “Not Active”. Also, in data set [1], the Emax came to 94%. The maximum response (Emax) at 5 min on 5-HT2A receptor worked out at 64%. The 50% effective concentration (EC50) is 3530 nM in data set [3] and 529 nM in [4].
With `COc1ccc(F)cc1C1CC1CNCc1ccccc1C(N)=O` (racemic), the Emax in data set [1] is 31%. For the same molecule, the concentration for a half-maximal effect (EC50) was 335 nM in data set [2], 1310 nM in data set [3] and 409 nM in data set [4]. For the same molecule, the maximal effect (Emax) at 5 min at 5-HT2A receptor came to 67%; at 5-HT2B receptor, 82%.

(Values after ChEMBL document CHEMBL4011649 (J Med Chem, 2017).)
